Results on 13 molecules are retold here after ChEMBL document CHEMBL5380869, “Discovery of an Oral, Beyond-Rule-of-Five Mcl-1 Protein-Protein Interaction Modulator with the Potential of Treating Hematological Malignancies” (J Med Chem, 2023).

≈ marks a conversion by molar mass, not a printed value. A value given as a limit tells only on which side of the number the result lay.

The nature of data set [1]: Inhibition of terbium-labelled Mcl-1 (unknown origin)/Bim BH3 peptide (H3N-(C/Cy5Mal)-WIAQELRRIGDEFN-OH) (unknown origin) interaction assessed as displacement of Cy5-labeled Bim BH3 peptide by TR-HTRF assay.
Data set [2] is described as follows: Intrinsic clearance in human liver microsomes measured upto 60 mins by LC-MS/MS analysis. To be noted: read-out: CLH. It counts as ADME, Microsome.
Data set [3] is described as follows: Thermodynamic (equilibrium) solubility of the compound measured after 3 days agitation in pH 2 buffer by LC-MS/MS analysis. It counts as physicochemical. To be noted: time 3 day, read-out: Therm_solubility.
Data set [4] can be described thus: Cardiotoxicity risk in human iPSC-CM assessed as calcium transients at 1 uM by CTCM assay. The data set is classed as toxicity, cell-based.
The nature of data set [5]: Lipophilicity, CHI logD of compound at pH 7.4 by UPLC-TOF analysis. It counts as physicochemical. To be noted: buffer.
A short description of data set [6]: Cardiotoxicity risk in human iPSC-CM assessed as calcium transients at 3 uM by CTCM assay. The data set is classed as toxicity, cell-based.
Data set [7] in a line: Thermodynamic (equilibrium) solubility of the compound measured after 3 days agitation in pH 7 buffer by LC-MS/MS analysis. To be noted: time 3 day, read-out: Therm_solubility. It counts as physicochemical.
A short description of data set [8]: Intrinsic clearance in mouse liver microsomes measured upto 60 mins by LC-MS/MS analysis. To be noted: read-out: CLH. The data set is classed as ADME, Microsome.
Data set [9] can be described thus: Cardiotoxicity risk in human iPSC-CM assessed as calcium transients at 10 uM by CTCM assay. It counts as toxicity, cell-based.
The test system of a further data set is MOLP-8. Kind of data set: Induction apoptosis in human MOLP8 cells assessed as cell killing measured after 2 hrs by Caspase-Glo 3/7 Assay. The data set is classed as functional, cell-based. To be noted: MOLP-8, 2 h.

Consider `COc1nn(C)cc1C(=O)N[S@@]1(=O)=NC(=O)c2ccc3c(c2)N(C[C@@H]2CCO[C@H]2[C@@H](OC)/C=C/C[C@H](C)C1)C[C@@]1(CCCc2cc(Cl)ccc21)CO3`, for which the Ki in [1] stood at 0.023 nM. Also, the microsomal CLint in [2] and in data set [8] was below 7.7 µL/min/mg each time. Moreover, the solubility thermodynamic at 72 h is 0.27 µM (≈ 0.203 µg/mL) in data set [3] and 172 µM (≈ 129 µg/mL) in data set [7]. Moreover, the Activity entry in data set [4], in data set [6] and in data set [9] was “Non-Toxic” each time. Also, the chromatographic logD in data set [5] stood at 2.9. Further, the AC50 with MOLP-8 amounted to 76.1 nM.

As for `CO[C@H]1/C(F)=C/C[C@H](C)[C@@H](C)S(=O)(=O)NC(=O)c2cnc3c(n2)N(C[C@@H]2CCO[C@H]21)C[C@@]1(CCCc2cc(Cl)ccc21)CO3`, the Ki in data set [1] was 5.29 nM. The microsomal CLint in data set [2] is 98 µL/min/mg; in [8], below 7.7 µL/min/mg. The results for the solubility thermodynamic at 72 h in data set [3] and in data set [7] were below 0.1 µM and 143 µM (≈ 92.8 µg/mL), respectively. This molecule also came in with a chromatographic logD in data set [5] of 2.8. For the same molecule, in the data set with MOLP-8, the half-maximal activity concentration (AC50) was found to be 1220 nM.

On to `COc1nn(C)cc1C(=O)N[S@]1(=O)=NC(=O)c2ccc3c(c2)N(C[C@@H]2CCO[C@H]2[C@@H](OC)/C(F)=C/C[C@H](C)C1)C[C@@]1(CCCc2cc(Cl)ccc21)CO3`, for which the Ki in data set [1] was found to be 0.25 nM. The microsomal CLint was found to be 16 µL/min/mg in [2] and 9.3 µL/min/mg in data set [8]. Further, the solubility thermodynamic at 72 h is below 0.1 µM in data set [3] and 202 µM (≈ 156 µg/mL) in data set [7]. Besides, the Activity entry in data set [4] and in data set [6] was “Non-Toxic” in each case. Also, in data set [5], the chromatographic logD came to 3. Moreover, the AC50 in the data set on MOLP-8 is 2420 nM.

With `C/C1=C\C[C@H](C)[C@@H](C)S(=O)(=O)NC(=O)c2ccc3c(c2)N(C[C@@H]2CCO[C@H]2[C@H]1CO)C[C@@]1(CCCc2cc(Cl)ccc21)CO3`, the Ki in data set [1] came to 0.52 nM. The values for the microsomal CLint in [2] and in data set [8] were below 7.7 µL/min/mg and 27 µL/min/mg, respectively. In addition, the solubility thermodynamic at 72 h in data set [3] and in [7] was below 0.1 µM in each case. This molecule also came in with a chromatographic logD in data set [5] of 2.8. In the data set on MOLP-8, the AC50 is 752 nM.

In the case of `COc1nn(C)cc1C(=O)N[S@]1(=O)=NC(=O)c2ccc3c(c2)N(C[C@@H]2CCO[C@H]2[C@H](OC)/C(F)=C/C[C@H](C)C1)C[C@@]1(CCCc2cc(Cl)ccc21)CO3`, in data set [1], the Ki is 0.025 nM. Further, the microsomal CLint in data set [2] is below 7.7 µL/min/mg; in data set [8] it was 16 µL/min/mg. Further, the results for the solubility thermodynamic at 72 h in data set [3] and in data set [7] were below 0.1 µM and 0.6 µM (≈ 0.462 µg/mL), respectively. The Activity entry in data set [4], in data set [6] and in data set [9] was “Non-Toxic” each time. For the same molecule, in data set [5], the chromatographic logD is 3.1. Moreover, the AC50 in the data set with MOLP-8 is 486 nM.

For the molecule `C[C@@H]1[C@@H](C)C/C=C(\F)[C@@](O)(CC(=O)N(C)C)[C@@H]2OCC[C@H]2CN2C[C@@]3(CCCc4cc(Cl)ccc43)COc3ccc(cc32)C(=O)NS1(=O)=O`, the inhibition constant Ki in data set [1] was 0.18 nM. Besides, the microsomal CLint in [2] and in data set [8] was below 7.7 µL/min/mg throughout. Also, the solubility thermodynamic at 72 h in data set [3] and in [7] was below 0.1 µM each time. The Activity result in data set [4] and in data set [6] was “Non-Toxic” throughout. In data set [5], this molecule displayed a chromatographic logD of 3.6. Besides, the AC50 with MOLP-8 was 436 nM.

As for `C[C@@H]1[C@@H](C)C/C=C/[C@H](O)[C@@H]2OCC[C@H]2CN2C[C@@]3(CCCc4cc(Cl)ccc43)COc3ccc(cc32)C(=O)NS1(=O)=O`, the Ki in data set [1] stood at 0.72 nM. The results for the microsomal CLint in data set [2] and in [8] were 16 µL/min/mg and 28 µL/min/mg, respectively. Further, the solubility thermodynamic at 72 h in data set [3] was below 0.1 µM; in data set [7] it was 53 µM (≈ 32.6 µg/mL). Also, in data set [5], the chromatographic logD was found to be 2.6. The AC50 in the data set with MOLP-8 worked out at 752 nM.

Consider `COC[C@H]1/C(C)=C/C[C@H](C)[C@@H](C)S(=O)(=O)NC(=O)c2ccc3c(c2)N(C[C@@H]2CCO[C@H]21)C[C@@]1(CCCc2cc(Cl)ccc21)CO3`, for which the Ki in data set [1] is 0.67 nM. Further, the microsomal CLint is below 7.7 µL/min/mg in [2] and 18 µL/min/mg in data set [8]. Moreover, the solubility thermodynamic at 72 h in data set [3] and in [7] was below 0.1 µM in each case. For the same molecule, in data set [5], the chromatographic logD was determined as 3.7. Also, in the data set on MOLP-8, the AC50 came to 1820 nM.

Regarding `CO[C@@H]1/C(F)=C/C[C@H](C)[C@@H](C)S(=O)(=O)NC(=O)c2ccc3c(c2)N(C[C@@H]2CCO[C@H]21)C[C@@]1(CCCc2cc(Cl)ccc21)CO3`, the Ki in data set [1] was 1.13 nM. The microsomal CLint in data set [2] is below 7.7 µL/min/mg; in data set [8] it was 21 µL/min/mg. Besides, the values for the solubility thermodynamic at 72 h in data set [3] and in [7] were below 0.5 µM and 11.2 µM (≈ 7.25 µg/mL), respectively. This molecule gave a chromatographic logD in data set [5] of 3. Moreover, in the data set on MOLP-8, the AC50 was determined as 1120 nM.

With `COc1nn(C)cc1C(=O)N[S@]1(=O)=NC(=O)c2ccc3c(c2)N(C[C@@H]2CCO[C@H]2[C@@](CN2CCN4CCOC[C@@H]4C2)(OC)/C(F)=C/C[C@H](C)C1)C[C@@]1(CCCc2cc(Cl)ccc21)CO3`, the Ki in data set [1] was 0.048 nM. Also, the microsomal CLint in data set [2] and in data set [8] was below 7.7 µL/min/mg throughout. The figures for the solubility thermodynamic at 72 h in data set [3] and in data set [7] were 544 µM (≈ 503 µg/mL) and 518 µM (≈ 479 µg/mL), respectively. In addition, the Activity entry in data set [4] and in [6] was “Non-Toxic” each time. The molecule also yielded a chromatographic logD in [5] of 3. In addition, the AC50 in the data set with MOLP-8 was determined as 424 nM.

With `COc1nn(C)cc1C(=O)N[S@]1(=O)=NC(=O)c2ccc3c(c2)N(C[C@@H]2CCO[C@H]2[C@](CN2CCN4CCOC[C@@H]4C2)(OC)/C(F)=C/C[C@H](C)C1)C[C@@]1(CCCc2cc(Cl)ccc21)CO3`, the Ki in [1] amounted to 0.17 nM. The microsomal CLint in data set [2] and in [8] was below 7.7 µL/min/mg throughout. For the same molecule, the solubility thermodynamic at 72 h in data set [3] was 480 µM (≈ 444 µg/mL); in data set [7], 25 µM (≈ 23.1 µg/mL). The Activity entry in data set [4], in data set [6] and in [9] was “Non-Toxic” in each case. Moreover, in data set [5], the chromatographic logD is 3. Besides, in the data set with MOLP-8, the half-maximal activity concentration (AC50) came to 702 nM.

With `C[C@@H]1[C@@H](C)C/C=C(\F)[C@@](O)(CC#N)[C@@H]2OCC[C@H]2CN2C[C@@]3(CCCc4cc(Cl)ccc43)COc3ccc(cc32)C(=O)NS1(=O)=O`, the Ki in data set [1] came to 2.36 nM. Moreover, the microsomal CLint in [2] and in [8] was below 7.7 µL/min/mg each time. The solubility thermodynamic at 72 h is below 0.5 µM in [3] and 0.3 µM (≈ 0.202 µg/mL) in data set [7]. Besides, the chromatographic logD in [5] turned out to be 3.1. In addition, the AC50 in the data set with MOLP-8 was above 5000 nM.

Take `COc1nn(C)cc1C(=O)N[S@@]1(=O)=NC(=O)c2ccc3c(c2)N(C[C@@H]2CCO[C@H]2[C@H](OC)/C(F)=C/C[C@H](C)C1)C[C@@]1(CCCc2cc(Cl)ccc21)CO3`: the Ki in [1] came out at 5.1 nM. Also, the microsomal CLint in data set [2] and in [8] was below 7.7 µL/min/mg in each case. Also, the solubility thermodynamic at 72 h in [3] was 0.2 µM (≈ 0.154 µg/mL); in data set [7], 188 µM (≈ 145 µg/mL). For the same molecule, the Activity entry in data set [4] and in data set [6] was “Non-Toxic” throughout. Besides, the chromatographic logD in [5] came to 2.9. Further, the AC50 in the data set on MOLP-8 was above 5000 nM.
